The target in this test is T1, human PAR4 (Homo sapiens, UniProt Q96RI0).
T1 construct: expressed in transfected cells; host or cells: HEK293 PAR4 Clone 1.2A (BMS Arctic ID 383940)
T1 sequence (Q96RI0 18-385): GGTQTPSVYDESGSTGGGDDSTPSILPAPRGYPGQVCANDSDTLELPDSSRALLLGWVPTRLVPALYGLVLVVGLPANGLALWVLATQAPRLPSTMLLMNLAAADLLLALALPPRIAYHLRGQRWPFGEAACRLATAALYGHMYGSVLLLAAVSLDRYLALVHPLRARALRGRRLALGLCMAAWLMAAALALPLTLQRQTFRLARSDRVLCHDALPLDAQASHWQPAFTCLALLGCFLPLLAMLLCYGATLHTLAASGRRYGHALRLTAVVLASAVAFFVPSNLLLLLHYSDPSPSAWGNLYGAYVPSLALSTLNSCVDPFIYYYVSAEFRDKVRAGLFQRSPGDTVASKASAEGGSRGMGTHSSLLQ
The test can be described thus: PAR4 FLIPR assay: antagonism of agonist-peptide-induced calcium mobilization in PAR4-expressing HEK293 cells. Type of test: cell-based. To be noted: H-Ala-Phe(4-F)-[…]NH2-induced intracellular calcium mobilization, 11-point curves.

pIC50: −log10 of the molar value.

As to `Cc1cc(-c2nc3c(C)cc(OCCNS(=O)(=O)c4ccc(Cl)cc4)cc3s2)c2ncc(OC(F)F)nc2c1` [Example 86, 4-chloro N-(2-(2-(2-(difluoromethoxy)-7-methylquinoxalin-5-yl)-4-methylbenzo[d]thiazol-6-yloxy)ethyl)benzenesulfonamide], the pIC50 was 8.14.

Take `COc1cnc2c(-c3nc4c(C)cc(OCCNS(=O)(=O)c5ccc(C)cc5)cc4s3)cc(C)cc2n1` [Example 87, N-(2-(2-(2-methoxy-7-methylquinoxalin-5-yl)-4-methylbenzo[d]thiazol-6-yloxy)ethyl)-4-methylbenzenesulfonamide]: the pIC50 is 8.70.

Turning to `COc1cnc2c(-c3nc4c(C(F)(F)F)cc(OCCNS(=O)(=O)c5ccc(F)cc5)cc4s3)cc(C)cc2n1` [Example 90, 4-fluoro N-(2-(2-(2-methoxy-7-methylquinoxalin-5-yl)-4-(trifluoromethyl)benzo[d]thiazol-6-yloxy)ethyl)benzenesulfonamide], the pIC50 is 7.08.

With `Cc1cc(-c2nc3c(C)cc(OCCNS(=O)(=O)c4ccc(F)cc4)cc3s2)c2ncc(C3CC3)nc2c1` [Example 91, N-(2-(2-(2-cyclopropyl-7-methylquinoxalin-5-yl)-4-methylbenzo[d]thiazol-6-yloxy)ethyl)-4-fluorobenzenesulfonamide], the pIC50 is 7.21.

For the molecule `COCc1cnc2c(-c3nc4c(C)cc(OCCNC(=O)OCc5ccccc5)cc4s3)cc(C)cc2n1` [Example 92, Benzyl 2-(2-(2-(methoxymethyl)-7-methylquinoxalin-5-yl)-4-methylbenzo[d]thiazol-6-yloxy)ethylcarbamate], the pIC50 was 8.70.

Consider `COCc1cnc2c(-c3nc4c(Cl)cc(OC)cc4s3)cc(C)cc2n1` [Example 93, 4-chloro-6-methoxy-2-(2-(methoxymethyl)-7-methylquinoxalin-5-yl)benzo[d]thiazole], for which the pIC50 is 9.52.

Regarding `COCc1cnc2c(-c3cc4cc(OC)ccc4o3)cc(C)cc2n1` [Example 94, 5-(5-methoxybenzofuran-2-yl)-2-(methoxymethyl)-7-methylquinoxaline], the pIC50 is 8.85.

With `COCc1cnc2c(-c3nc4c(C)cc(OCCNS(=O)(=O)c5ccccc5)cc4s3)cc(C)cc2n1` [Example 95, N-(2-((2-(2-(methoxymethyl)-7-methylquinoxalin-5-yl)-4-methylbenzo[d]thiazol-6-yl)oxy)ethyl)benzenesulfonamide], the pIC50 was 9.10.

In the case of `COCc1cnc2c(-c3nc4c(C)cc(OCCNS(=O)(=O)c5ccccc5F)cc4s3)cc(C)cc2n1` [Example 96, 2-fluoro N-(2-(2-(2-(methoxymethyl)-7-methylquinoxalin-5-yl)-4-methylbenzo[d]thiazol-6-yloxy)ethyl)benzenesulfonamide], the pIC50 was 8.96.

On to `COCc1cnc2c(-c3nc4c(C)cc(OCCNS(=O)(=O)c5cccc(F)c5)cc4s3)cc(C)cc2n1` [Example 97, 3-fluoro N-(2-(2-(2-(methoxymethyl)-7-methylquinoxalin-5-yl)-4-methylbenzo[d]thiazol-6-yloxy)ethyl)benzenesulfonamide], for which the pIC50 was 8.77.

For the molecule `COCc1cnc2c(-c3nc4c(Cl)cc(OCCNS(C)(=O)=O)cc4s3)cc(C)cc2n1` [Example 98, N-(2-(4-chloro-2-(2-(methoxymethyl)-7-methylquinoxalin-5-yl)benzo[d]thiazol-6-yloxy)ethyl)methanesulfonamide], the pIC50 was 9.52.

With `COCc1cnc2c(-c3nc4c(Cl)cc(OCCNS(=O)(=O)c5ccccc5)cc4s3)cc(C)cc2n1` [Example 99, N-(2-(4-chloro-2-(2-(methoxymethyl)-7-methylquinoxalin-5-yl)benzo[d]thiazol-6-yloxy)ethyl)benzenesulfonamide], the pIC50 was 9.22.

For `COCc1cnc2c(-c3nc4c(Cl)cc(OCCNS(=O)(=O)c5ccccc5F)cc4s3)cc(C)cc2n1` [Example 100, N-(2-(4-chloro-2-(2-(methoxymethyl)-7-methylquinoxalin-5-yl)benzo[d]thiazol-6-yloxy)ethyl)-2-fluorobenzenesulfonamide], the pIC50 is 9.30.

Consider `COCc1cnc2c(-c3nc4c(Cl)cc(OCCNS(=O)(=O)c5ccc(F)cc5)cc4s3)cc(C)cc2n1` [Example 101, N-(2-(4-chloro-2-(2-(methoxymethyl)-7-methylquinoxalin-5-yl)benzo[d]thiazol-6-yloxy)ethyl)-4-fluorobenzenesulfonamide], for which the negative-log IC50 (pIC50) is 9.70.

For `COCc1cnc2c(-c3nc4c(Cl)cc(OCCNS(=O)(=O)c5cccc(F)c5)cc4s3)cc(C)cc2n1` [Example 102, N-(2-(4-chloro-2-(2-(methoxymethyl)-7-methylquinoxalin-5-yl)benzo[d]thiazol-6-yloxy)ethyl)-3-fluorobenzenesulfonamide], the pIC50 is 9.05.

As for `COCc1cnc2c(-c3nc4c(C#N)cc(OC)cc4s3)cc(C)cc2n1` [Example 103, 6-methoxy-2-(2-(methoxymethyl)-7-methylquinoxalin-5-yl)benzo[d]thiazole-4-carbonitrile], the pIC50 is 8.60.

In the case of `COCc1cnc2c(-c3nc4c(C5CC5)cc(OCCNS(=O)(=O)c5ccccc5)cc4s3)cc(C)cc2n1` [Example 104, N-(2-(4-cyclopropyl-2-(2-(methoxymethyl)-7-methylquinoxalin-5-yl)benzo[d]thiazol-6-yloxy)ethyl)benzenesulfonamide], the pIC50 was 8.77.

For `COCc1cnc2c(-c3nc4c(C5CC5)cc(OCCNS(=O)(=O)c5ccc(F)cc5)cc4s3)cc(C)cc2n1` [Example 105, N-(2-(4-cyclopropyl-2-(2-(methoxymethyl)-7-methylquinoxalin-5-yl)benzo[d]thiazol-6-yloxy)ethyl)-4-fluorobenzenesulfonamide], the pIC50 is 8.09.

In the case of `COCc1cnc2c(-c3nc4ccc(OCCNS(=O)(=O)c5ccccc5)cc4s3)cc(C)cc2n1` [Example 106, N-(2-(2-(2-(methoxymethyl)-7-methylquinoxalin-5-yl)benzo[d]thiazol-6-yloxy)ethyl)benzenesulfonamide], the pIC50 is 8.80.

Regarding `COCc1cnc2c(-c3nc4ccc(OCCNS(=O)(=O)c5ccc(F)cc5)cc4s3)cc(C)cc2n1` [Example 107, 4-fluoro N-(2-(2-(2-(methoxymethyl)-7-methylquinoxalin-5-yl)benzo[d]thiazol-6-yloxy)ethyl)benzenesulfonamide], the pIC50 was 8.55.

As for `Cc1cc(-c2nc3c(C)cc(OCCNS(=O)(=O)c4ccc(F)cc4)cc3s2)c2ncc(C(C)F)nc2c1` (stereo not drawn) [Example 108, 4-fluoro N-(2-(2-(2-(1 fluoroethyl)-7-methylquinoxalin-5-yl)-4-methylbenzo[d]thiazol-6-yloxy)ethyl)benzenesulfonamide], the pIC50 was 5.96.

Consider `COCc1cnc2c(-c3nc4c(C#N)cc(OCCNS(=O)(=O)c5ccc(F)cc5)cc4s3)cc(C)cc2n1` [Example 109, N-(2-(4-cyano-2-(2-(methoxymethyl)-7-methylquinoxalin-5-yl)benzo[d]thiazol-6-yloxy)ethyl)-4-fluorobenzenesulfonamide], for which the negative logarithm of the IC50 (pIC50) is 8.08.

As for `COc1cnc2c(-c3nc4c(C)cc(OCCOC(=O)Nc5ccccc5)cc4s3)cc(C)cc2n1` [Example 110, 2-(2-(2-methoxy-7-methylquinoxalin-5-yl)-4-methylbenzo[d]thiazol-6-yloxy)ethyl phenylcarbamate], the pIC50 is 7.92.

`COc1cnc2c(-c3nc4c(C)cc(OCCOC(=O)Nc5cccnc5)cc4s3)cc(C)cc2n1` [Example 111, 2-(2-(2-methoxy-7-methylquinoxalin-5-yl)-4-methylbenzo[d]thiazol-6-yloxy)ethyl pyridin-3-ylcarbamate]: the pIC50 is 8.96.

`COc1ccc(NC(=O)OCCOc2cc(C)c3nc(-c4cc(C)cc5nc(OC)cnc45)sc3c2)cn1` [Example 112, 2-(2-(2-methoxy-7-methylquinoxalin-5-yl)-4-methylbenzo[d]thiazol-6-yloxy)ethyl 6-methoxypyridin-3-ylcarbamate]: the pIC50 is 8.70.

Take `COc1cnc2c(-c3nc4c(C)cc(OCCOC(=O)Nc5ccncc5)cc4s3)cc(C)cc2n1` [Example 113, 2-(2-(2-methoxy-7-methylquinoxalin-5-yl)-4-methylbenzo[d]thiazol-6-yloxy)ethyl pyridin-4-ylcarbamate]: the pIC50 is 8.52.

As to `Cc1cc(-c2nc3c(C)cc(OCCNS(=O)(=O)c4ccc(F)cc4)cc3s2)c2ncc(COC(F)F)nc2c1` [Example 114, N-(2-(2-(2-((difluoromethoxy)methyl)-7-methylquinoxalin-5-yl)-4-methylbenzo[d]thiazol-6-yloxy)ethyl)-4-fluorobenzenesulfonamide], the pIC50 was 5.80.

Consider `COc1ccc(NC(=O)OCCOc2ccc3nc(-c4cc(C)cc5nc(OC)cnc45)sc3c2)cn1` [Example 115, 2-(2-(2-methoxy-7-methylquinoxalin-5-yl)benzo[d]thiazol-6-yloxy)ethyl 6-methoxypyridin-3-ylcarbamate], for which the pIC50 is 8.89.

As for `COc1cnc2c(-c3nc4c(C)cc(OCCOC(=O)Nc5cncc(C#N)c5)cc4s3)cc(C)cc2n1` [Example 116, 2-(2-(2-methoxy-7-methylquinoxalin-5-yl)-4-methylbenzo[d]thiazol-6-yloxy)ethyl 5-cyanopyridin-3-ylcarbamate], the pIC50 was 8.85.

As to `COc1cnc2c(-c3nc4c(C)cc(OCCOC(=O)Nc5ccc(C#N)nc5)cc4s3)cc(C)cc2n1` [Example 117, 2-((2-(2-methoxy-7-methylquinoxalin-5-yl)-4-methylbenzo[d]thiazol-6-yl)oxy)ethyl (6-cyanopyridin-3-yl)carbamate], the pIC50 was 9.30.

Source of the values: patent US12060347B2 (BRISTOL-MYERS SQUIBB COMPANY, priority 2016, dated 2024).
